Reference: US20230210797A1, “PREVENTING AND TREATING HYPOGLYCEMIA” (DIAMYD MEDICAL AB, priority 2019, published 2023)

Columns and labels:
glucagon = assay: Hypoglycemic clamp: plasma glucagon levels; assay type: in vivo, human; details: for Glucagon levels, Change from baseline, Mean (SD) / Glucagon levels, Change from baseline, Median (Min, Max) / Glucagon levels, Observed value, Mean (SD) / Glucagon levels, Observed value, Median (Min, Max): C-peptide undetectable
Experimental: (§1) In order to evaluate the counterregulatory hormone response to hypoglycemia, a hypoglycemic clamp will be performed. The Hypoglycemic Clamp must be performed according to the instructions in the Operations Manual. (Appendix 3)
(§2) The patient should: • Come to the study site following an overnight fast (>10 hours), i.e. the patient may not eat but is permitted to drink water • Not have taken the Remygen and, if applicable, Alprazolam dose in the morning • Not take short acting/direct acting insulin within 6 hours before the investigation. • The patient is allowed to take base-insulin day/night before, but not in the morning before the investigation.
(§3) Patients with CSII (insulin pump) must continue with their basal dose insulin, but not add bolus dose during the last 6 hours before the investigation.
(§4) If a patient has a blood sugar level <4 mmol/L in the morning of the scheduled visit, the patient is allowed to take dextrose tablets and then come to the study site. The patient is allowed to perform the investigation if the blood sugar level is >4 mmol/L.
(§5) In the dose-escalation part of the study, the patient will take study drug 30 min prior to start of the hypoglycemic clamp. In the main study, the study drug will instead be taken after finalization of the hypoglycemic clamp. Baseline blood samples will be obtained for glucose, glucagon, epinephrine, norepinephrine, growth hormone and cortisol. The clamp will then be initiated by an intravenous insulin infusion at a rate of 2 mU×kg^−1×min^−1. Glucose 100 mg/ml will then be administered in variable infusion rates to clamp the blood glucose concentration at 5.5 mmol/land then at 2.5 mmol/land kept stable for 30 min. Blood glucose will be evaluated repeatedly in order to find the optimal glucose infusion rate. Blood sampling to determined levels of counterregulatory hormones as described above will be performed at each of these target levels when a stable glucose concentration has been reached. The insulin infusion will thereafter be terminated and the patient is allowed to eat and will be observed until normoglycemia is achieved. If necessary, additional glucose administration will be given to allow blood glucose concentrations to normalize.
(§6) Plasma glucose was first lowered to normoglycemic levels (5.5 mmol/L) and hormone levels monitored, and then to hypoglycemic levels (2.5 mmol/L) and hormone levels monitored. Difference was calculated as a measurement of the response to hypoglycemia.

growth hormone = assay: Hypoglycemic clamp: plasma growth hormone levels; assay type: in vivo, human; details: for Growth hormone levels, change from baseline, Mean / Growth hormone levels, change from baseline, Median / Growth hormone levels, observed value, Mean / Growth hormone levels, observed value, Median: C-peptide undetectable, n=5
Experimental: as §1, §2, §3, §4, §5, §6

[1] = Visit 5, 200 mg GABA per day, Event 2.5 mmol/L
[2] = Visit 5, 200 mg GABA per day, Event 5.5 mmol/L
[3] = Visit 5, 200 mg GABA per day, Event Baseline
[4] = Visit 5, 200 mg GABA per day, Event Diff 2.5-5.5 mmol/L
[5] = Visit 7, 600 mg GABA per day, Event 2.5 mmol/L
[6] = Visit 7, 600 mg GABA per day, Event 5.5 mmol/L
[7] = Visit 7, 600 mg GABA per day, Event Baseline
[8] = Visit 7, 600 mg GABA per day, Event Diff 2.5-5.5 mmol/L
[9] = Visit 9, 1200 mg GABA per day, Event 2.5 mmol/L
[10] = Visit 9, 1200 mg GABA per day, Event 5.5 mmol/L
[11] = Visit 9, 1200 mg GABA per day, Event Baseline
[12] = Visit 9, 1200 mg GABA per day, Event Diff 2.5-5.5 mmol/L
[13] = change in levels when clamping to 2.5 mmol/L from 5.5 mmol/L
[14] = Visit 5, 200 mg GABA per day, event 2.5 mmol/L
[15] = Visit 5, 200 mg GABA per day, event 5.5 mmol/L
[16] = Visit 5, 200 mg GABA per day, event Baseline
[17] = Visit 5, 200 mg GABA per day, event Diff 2.5-5.5 mmol/L
[18] = Visit 7, 600 mg GABA per day, event 2.5 mmol/L
[19] = Visit 7, 600 mg GABA per day, event 5.5 mmol/L
[20] = Visit 7, 600 mg GABA per day, event Baseline
[21] = Visit 7, 600 mg GABA per day, event Diff 2.5-5.5 mmol/L
[22] = Visit 9, 1200 mg GABA per day, event 2.5 mmol/L
[23] = Visit 9, 1200 mg GABA per day, event 5.5 mmol/L
[24] = Visit 9, 1200 mg GABA per day, event Baseline
[25] = Visit 9, 1200 mg GABA per day, event Diff 2.5-5.5 mmol/L

## NCCCC(=O)O [GABA, Gamma-amino butyric acid]
glucagon; [1]
  Glucagon levels, Change from baseline, Mean (SD): 2.12 pmol/L
  Glucagon levels, Change from baseline, Median (Min, Max): 1.60 pmol/L
  Glucagon levels, Observed value, Mean (SD): 4.88 (2.44) pmol/L
  Glucagon levels, Observed value, Median (Min, Max): 4.80 pmol/L
glucagon; [2]
  Glucagon levels, Change from baseline, Mean (SD): -0.11 pmol/L
  Glucagon levels, Change from baseline, Median (Min, Max): 0.00 pmol/L
  Glucagon levels, Observed value, Mean (SD): 2.08 (1.33) pmol/L
  Glucagon levels, Observed value, Median (Min, Max): 2.20 pmol/L
glucagon; [3]
  Glucagon levels, Change from baseline, Mean (SD): 0.46 pmol/L
  Glucagon levels, Change from baseline, Median (Min, Max): 0.60 pmol/L
  Glucagon levels, Observed value, Mean (SD): 3.92 (1.03) pmol/L
  Glucagon levels, Observed value, Median (Min, Max): 3.60 pmol/L
glucagon; [4]
  Glucagon levels, Change from baseline, Mean (SD): 2.23 pmol/L
  Glucagon levels, Change from baseline, Median (Min, Max): 1.85 pmol/L
  Glucagon levels, Observed value, Mean (SD): 2.80 (2.07) pmol/L
  Glucagon levels, Observed value, Median (Min, Max): 2.60 pmol/L
glucagon; [5]
  Glucagon levels, Change from baseline, Mean (SD): 1.64 pmol/L
  Glucagon levels, Change from baseline, Median (Min, Max): 1.40 pmol/L
  Glucagon levels, Observed value, Median (Min, Max): 4.20 pmol/L
glucagon; [6]
  Glucagon levels, Change from baseline, Mean (SD): -0.66 pmol/L
  Glucagon levels, Change from baseline, Median (Min, Max): -0.60 pmol/L
  Glucagon levels, Observed value, Mean (SD): 1.53 (1.32) pmol/L
  Glucagon levels, Observed value, Median (Min, Max): 0.75 pmol/L
glucagon; [7]
  Glucagon levels, Change from baseline, Mean (SD): -0.42 pmol/L
  Glucagon levels, Change from baseline, Median (Min, Max): -0.70 pmol/L
  Glucagon levels, Observed value, Mean (SD): 3.04 (0.66) pmol/L
  Glucagon levels, Observed value, Median (Min, Max): 3.10 pmol/L
glucagon; [8]
  Glucagon levels, Change from baseline, Mean (SD): 2.30 pmol/L
  Glucagon levels, Change from baseline, Median (Min, Max): 2.10 pmol/L
  Glucagon levels, Observed value, Mean (SD): 2.87 (1.96) pmol/L
  Glucagon levels, Observed value, Median (Min, Max): 2.95 pmol/L
glucagon; [9]
  Glucagon levels, Change from baseline, Mean (SD): 3.16 pmol/L
  Glucagon levels, Change from baseline, Median (Min, Max): 3.30 pmol/L
  Glucagon levels, Observed value, Mean (SD): 5.92 (3.70) pmol/L
  Glucagon levels, Observed value, Median (Min, Max): 5.60 pmol/L
glucagon; [10]
  Glucagon levels, Change from baseline, Mean (SD): -0.58 pmol/L
  Glucagon levels, Change from baseline, Median (Min, Max): -0.80 pmol/L
  Glucagon levels, Observed value, Mean (SD): 1.61 (1.18) pmol/L
  Glucagon levels, Observed value, Median (Min, Max): 0.75 pmol/L
glucagon; [11]
  Glucagon levels, Change from baseline, Mean (SD): 0.96 pmol/L
  Glucagon levels, Change from baseline, Median (Min, Max): 0.50 pmol/L
  Glucagon levels, Observed value, Median (Min, Max): 3.90 pmol/L
glucagon; [12]
  Glucagon levels, Change from baseline, Mean (SD): 3.74 pmol/L
  Glucagon levels, Change from baseline, Median (Min, Max): 3.30 pmol/L
  Glucagon levels, Observed value, Mean (SD): 4.31 (4.33) pmol/L
  Glucagon levels, Observed value, Median (Min, Max): 2.60 pmol/L
glucagon; [13]
  Counter regulatory response of Glucagon, effect of GABA treatment: increased
glucagon; clamped to 5.5 mmol/L
  Normoglycemic levels of Glucagon, effect of GABA treatment: decrease
glucagon; type 1 diabetes individuals with pathologically increased glucagon
  Circulating glucagon concentrations, effect of GABA: lower
Growth hormone; [14]
  Growth hormone levels, change from baseline, Mean: 4.560 µg/L
  Growth hormone levels, change from baseline, Median: 3.400 µg/L
  Growth hormone levels, observed value, Mean: 11.632 µg/L
  Growth hormone levels, observed value, Median: 4.000 µg/L
Growth hormone; [15]
  Growth hormone levels, change from baseline, Mean: -0.802 µg/L
  Growth hormone levels, change from baseline, Median: 0.000 µg/L
  Growth hormone levels, observed value, Mean: 2.110 µg/L
  Growth hormone levels, observed value, Median: 0.070 µg/L
Growth hormone; [16]
  Growth hormone levels, change from baseline, Mean: 0.475 µg/L
  Growth hormone levels, change from baseline, Median: 0.035 µg/L
  Growth hormone levels, observed value, Mean: 0.630 µg/L
  Growth hormone levels, observed value, Median: 0.080 µg/L
Growth hormone; [17]
  Growth hormone levels, change from baseline, Mean: 5.362 µg/L
  Growth hormone levels, change from baseline, Median: 4.000 µg/L
  Growth hormone levels, observed value, Mean: 9.522 µg/L
  Growth hormone levels, observed value, Median: 3.440 µg/L
Growth hormone; [18]
  Growth hormone levels, change from baseline, Mean: 10.068 µg/L
  Growth hormone levels, change from baseline, Median: 9.000 µg/L
  Growth hormone levels, observed value, Mean: 17.140 µg/L
  Growth hormone levels, observed value, Median: 11.700 µg/L
Growth hormone; [19]
  Growth hormone levels, change from baseline, Mean: -1.812 µg/L
  Growth hormone levels, change from baseline, Median: -0.340 µg/L
  Growth hormone levels, observed value, Mean: 1.100 µg/L
  Growth hormone levels, observed value, Median: 0.160 µg/L
Growth hormone; [20]
  Growth hormone levels, change from baseline, Mean: 2.098 µg/L
  Growth hormone levels, change from baseline, Median: 0.090 µg/L
  Growth hormone levels, observed value, Mean: 2.253 µg/L
  Growth hormone levels, observed value, Median: 0.140 µg/L
Growth hormone; [21]
  Growth hormone levels, change from baseline, Mean: 11.880 µg/L
  Growth hormone levels, observed value, Mean: 16.040 µg/L
  Growth hormone levels, observed value, Median: 10.820 µg/L
Growth hormone; [22]
  Growth hormone levels, change from baseline, Mean: 7.388 µg/L
  Growth hormone levels, change from baseline, Median: 7.900 µg/L
  Growth hormone levels, observed value, Mean: 14.460 µg/L
  Growth hormone levels, observed value, Median: 14.000 µg/L
Growth hormone; [23]
  Growth hormone levels, change from baseline, Mean: -1.468 µg/L
  Growth hormone levels, change from baseline, Median: -0.210 µg/L
  Growth hormone levels, observed value, Mean: 1.444 µg/L
  Growth hormone levels, observed value, Median: 0.170 µg/L
Growth hormone; [24]
  Growth hormone levels, change from baseline, Median: 0.100 µg/L
  Growth hormone levels, observed value, Mean: 0.461 µg/L
  Growth hormone levels, observed value, Median: 0.170 µg/L
Growth hormone; [25]
  Growth hormone levels, change from baseline, Mean: 8.856 µg/L
  Growth hormone levels, change from baseline, Median: 6.900 µg/L
  Growth hormone levels, observed value, Mean: 13.016 µg/L
  Growth hormone levels, observed value, Median: 8.600 µg/L
Growth hormone; [13]
  Counter regulatory response of Growth hormone, effect of GABA treatment: increased
Growth hormone; clamped to 5.5 mmol/L
  Normoglycemic levels of Growth hormone, effect of GABA treatment: decrease
